Entries after “also recorded” stand apart in the source; their conditions may differ. Where a name gives a salt, the structure may show the parent alone.
Key:
pregnant C57BL/6 mice [1] = assay: gestation period in healthy control mice (no LPS); format: in vivo; details: 1.5 mg/mouse intraperitoneal every 24 hours
Protocol: (§1) Provided in FIGS. 8A and 8B are an experimental schematic and results of tocolytic compound treatment in mouse models of severe preterm birth. In separate experiments, pregnant C57BL/6 mice were intraperitoneally administered 3 mg/kg LPS (Escherichia coli 0127: B8, chromatographically pure, Sigma-Aldrich) or PBS (as control) on D15. Treated mice were then treated with either intraperitoneal injections of vehicle or androstane-3,17-diol (1.5 mg/mouse). The androstane-3,17-diol group received androstane-3,17-diol via intraperitoneal injections every 24 hours, up to 3 days before delivery. One-third (33%) of LPS-induced preterm mice treated with androstane-3,17-diol reached full term.

pregnant C57BL/6 mice [2] = assay: mouse model of severe preterm birth (LPS 3 mg/kg); format: in vivo
Protocol: Provided in FIG. 7 is an experimental schematic of compound treatment in mouse models of severe preterm birth. In separate experiments, pregnant C57BL/6 mice were intraperitoneally administered 3 mg/kg LPS (Escherichia coli 0127: B8, chromatographically pure, Sigma-Aldrich) or PBS (as control) on D15. Treated mice were then treated with either intraperitoneal injections of vehicle (200 μl) or androstane-3,17-diol (1.5 mg/mouse, 200 μl) every 12 hours, up to 5 doses before delivery.
as §1

[3] = tested on: uterine muscle strips from pregnant WT mice; assay: myography of mouse uterine muscle strips, spontaneous contraction
Protocol: (§2) Uterine muscle strips were extracted from pregnant mice and were assessed for contractibility via myography. Timed-pregnant wild-type C57/B6 mice were euthanized before making a vertical midline abdominal incision and removing each of the two uterine horns. Uterine horns were subsequently cut into 3-mm×7-mm segments and placed in a modified Krebs buffer (118 mM NaCl, […], 1.2 mM MgSO4, 1.2 mM KH2PO4, 2.5 mM CaCl2), 25 mM NaHCO3, and 11 mM glucose, pH 7.4). Muscle segments were vertically suspended on custom-made stainless steel hooks inside an organ bath filled with modified Krebs buffer, maintained at 37° C., and aerated with gas containing 95% O2 and 5% CO2. The strips were allowed to equilibrate at 1.5 g of tension for 45 min.
Provided in FIG. 5A are results of a myography experiment measuring spontaneous contraction. Myography of uterine muscle strips from pregnant WT mice at D18 was performed while incubating the strips with oxytocin (OXY), Vehicle, 0.25 μM μM of DHEA-S, 1 μM of THDOC, 1 μM of estriol-16-glucuronide, or 1 μM of androstane-3,17-diol. The area under the curve was calculated for the final 180 s of each 9-min contraction tracing using GraphPad Prism (GraphPad Prism for Macintosh version 5.0; GraphPad Software). The area under the curve for each response was then normalized to the area under the curve of the baseline.
Provided in FIG. 5E are myography tracings recorded with various compound applications: 10 μM progesterone, 1 μM Androstane-3,17-diol, 0.5 μM Androstane-3,17-diol+5 μM progesterone, and 0.33 μM Androstane-3,17-diol+0.33 μM THDOC+3.3 μM progesterone. Left of the arrow is baseline contraction and to the right of the arrow indicates when the compounds were applied. […] Note that there was no obvious effect when treating the muscle with 1 μM progesterone (data not shown).

[4] = tested on: uterine muscle strips from pregnant WT mice stimulated with oxytocin; assay: myography of mouse uterine muscle strips, oxytocin dose response; details: D18 strips
Protocol: as §2
For the oxytocin dose-response experiments, the strips were then stimulated with oxytocin at concentrations ranging from 1 to 1000 nM, and the pattern of contraction in response to each dose was recorded for 9 min. The muscle strips were washed with Krebs solution twice and allowed to equilibrate for 3 min before the next stimulation. In separate experiments, strips were treated with the compounds before assessing the dose response to oxytocin. Contraction tracings were recorded using PowerLab and LabChart (ADInstruments).
Provided in FIGS. 5B and 5C are results of a myography experiment measuring spontaneous contractions induced by oxytocin. […]

pregnant C57BL/6 mice [5] = assay: mouse model of moderate preterm birth (LPS 2 mg/kg); format: in vivo; details: LPS 2 mg/kg D15; for gestation after LPS: intraperitoneal every 8 hours, DHEA-S, THDOC 0.8 then 0.4 mg/mouse, androstane-3,17-diol 1.5 mg/mouse, combinations 0.75 mg/mouse each
Protocol: Provided in FIGS. 6A and 6B are an experimental schematic and results of compound treatment in mouse models of moderate preterm birth. Pregnant C57BL/6 mice were intraperitoneally administered 2 mg/kg LPS (Escherichia coli 0127:B8, chromatographically pure, Sigma-Aldrich) or PBS (as control) on D15. Mice were then treated with either intraperitoneal injections of vehicle (100 μl, 30% DMSO in pharmaceutical sesame oil), DHEA-S (first two doses at 0.8 mg/mouse, later doses at 0.4 mg/mouse, 100 μl), THDOC (first two doses at 0.8 mg/mouse, later doses at 0.4 mg/mouse, 100 μl), estriol-16-glucuronide (first two doses at 0.8 mg/mouse, later doses at 0.4 mg/mouse, 100 μl), androstane-3,17-diol (1.5 mg/mouse, 100 μl), Androstane-3,17-diol+progesterone (each at 0.75 mg/mouse, 100 μl), or DHEA-S+androstane-3,17-diol+progesterone (androstane-3,17-diol and progesterone each at 0.75 mg/mouse, DHEA-S at 0.27 mg/mouse for the first two doses and then 0.13 mg/mouse for the later does, 100 μl). Compound groups received the compounds via intraperitoneal injections every 8 hours, beginning 8 hours after LPS administration, up to 4 doses, and then after 12 hours before delivery.

[6] = tested on: human uterine smooth muscle cells; assay: collagen gel contraction assay with human uterine smooth muscle cells; format: cell-based; details: compound at 10 μM; oxytocin 100 nM, 18 hours
Protocol: The abilities of various hormonal steroids to inhibit human uterine smooth muscle cell contraction were assessed utilizing a collagen gel contraction assay. Collagen (150 μl) was aliquoted per well of a 48-well plate. After 1 hour of polymerization, 80,000 human uterine smooth muscle cells (SMCs), were added to each well in 300 μl of SmBM smooth muscle basic medium (Lonza) with vehicle (DMSO) or compounds (2.5 µM of DHEA-S, 10 µM of THDOC, 10 µM of estriol-16-glucuronide, 10 µM of androstane-3,17-diol, or 2 mM of progesterone). Collagen gels were exposed to oxytocin (100 nM) to stimulate uterine SMC contraction or PBS as control. After incubating for 1 hour at 37° C. and 5% CO2, the sides of the collagen gels were detached from the wells with sterile 200-μl pipette tips. After 18 hours, cells in collagen-coated wells were fixed with 4% paraformaldehyde solution for 30 min, then rinsed, and stored in PBS. Experiments were done multiple times (n=7), with duplicates for each condition. Surface area of each gel circle was measured using ImageJ. The areas were then expressed as a percentage relative to the area of no cell (collagen alone) control (set at 100%).
Each of the compounds assessed provided some ability to mitigate collagen retraction. […]

pregnant CD1 mice = assay: mouse model of preterm birth (CD1, LPS 1 mg/kg); format: in vivo; details: LPS 1 mg/kg D15, subcutaneous; for pups birthed from treated preterm model females: 4 doses; for gestation after LPS: 4 doses at 30 mg/kg (5α-DHT 3 mg/kg)
Protocol: Provided in FIGS. 9 and 9B are an experimental schematic and results of compound treatment in mouse models of preterm birth. Pregnant CD1 mice were intraperitoneally administered 1 mg/kg LPS (Escherichia coli 0127: B8, chromatographically pure, Sigma-Aldrich) or PBS (as control) on D15. Mice were then treated with either subcutaneous injections of vehicle (DMSO in pharmaceutical sesame oil), pregnenolone (Preg) (4 doses at 30 mg/kg), pregnenolone sulfate (PregS) (4 doses at 30 mg/kg), 7-methylguanine (4 doses at 30 mg/kg), or 5α-dihydrotestosterone (5α-DHT) (4 doses at 3 mg/kg). Compound groups received the compounds beginning 6 hours after LPS administration, then 6, 12, and 12 hours apart.

C[C@]12CC[C@@H](O)C[C@@H]1CC[C@@H]1[C@@H]2CC[C@]2(C)[C@@H](O)CC[C@@H]12 (stereo in doubt) [androstane-3,17-diol]
gestation period of healthy control mice (pregnant C57BL/6 mice [1]): increased gestation period beyond the typical date of delivery
condition of mom and pups at full-term (pregnant C57BL/6 mice [2]; 1.5 mg/mouse intraperitoneal every 12 hours): looked healthy
fraction of mice that reached full-term (pregnant C57BL/6 mice [2]; 1.5 mg/mouse intraperitoneal every 12 hours, up to 5 doses): ⅓
LPS-induced preterm mice that reached full term (pregnant C57BL/6 mice [2]; 1.5 mg/mouse intraperitoneal every 24 hours, up to 3 days): 33%
muscle contractility, myography tracing ([3]; 1 μM): rapid inhibition of the muscle contraction
suppression of uterine contractility (area under the curve normalized to baseline) ([3]; D18 strips, 0.25 μM DHEA-S, 1 μM THDOC, estriol-16-glucuronide or androstane-3,17-diol): most significant inhibition effect
uterine contractility with oxytocin stimulation (AUC, amplitude) ([4]; 1 μM compound, increasing doses of oxytocin): reduced; also recorded: inhibits uterine muscle contraction
pups birthed from treated preterm model females (pregnant C57BL/6 mice [5]; intraperitoneal): Full-term live pups
rank of gestation result among treatments (pregnant C57BL/6 mice [5]; intraperitoneal): most significant results
gestation after LPS (pregnant C57BL/6 mice [5]): prolonged gestation in vivo
ability to mitigate collagen retraction [6]: best results

CC[C@H](C)[C@@H]1NC(=O)[C@H](Cc2ccc(O)cc2)NC(=O)[C@@H](N)CSSC[C@@H](C(=O)N2CCC[C@H]2C(=O)N[C@@H](CC(C)C)C(=O)NCC(N)=O)NC(=O)[C@H](CC(N)=O)NC(=O)[C@H](CCC(N)=O)NC1=O [Oxytocin, oxytocin, reference compound]
effect of oxytocin on uterine contractility ([4]; 1 to 1000 nM oxytocin): dose-dependent increase in uterine contractility

CC(=O)[C@H]1CC[C@H]2[C@@H]3CCC4=CC(=O)CC[C@]4(C)[C@H]3CC[C@]12C [progesterone, reference compound]
muscle contractility, myography tracing ([3]; 1 μM): no effects
muscle contractility, myography tracing ([3]; 10 μM): first enhanced and then gradually suppressed in peak height
ability to mitigate collagen retraction [6]: no effect

Cn1cnc2nc(N)[nH]c(=O)c21 [7-methylguanine]
pups birthed from treated preterm model females (pregnant CD1 mice): Full-term live pups
gestation after LPS (pregnant CD1 mice): prolonged gestation in vivo

C[C@]12CC[C@@H](O)C[C@H]1CC[C@@H]1[C@@H]2CC[C@]2(C)[C@@H](C(=O)CO)CC[C@@H]12 [THDOC, tetrahydrodeoxycorticosterone]
gestation after LPS (pregnant C57BL/6 mice [5]): prolonged gestation in vivo

CC(=O)[C@H]1CC[C@H]2[C@@H]3CC=C4C[C@@H](OS(=O)(=O)O)CC[C@]4(C)[C@H]3CC[C@]12C [pregnenolone sulfate]
pups birthed from treated preterm model females (pregnant CD1 mice): Full-term live pups
rank of gestation result among treatments (pregnant CD1 mice; 4 doses at 30 mg/kg): most significant results, matching the untreated control
gestation after LPS (pregnant CD1 mice): prolonged gestation in vivo

C[C@]12CCC(=O)C[C@@H]1CC[C@@H]1[C@@H]2CC[C@]2(C)[C@@H](O)CC[C@@H]12 [5α-DHT, 5α-dihydrotestosterone]
pups birthed from treated preterm model females (pregnant CD1 mice): Full-term live pups
gestation after LPS (pregnant CD1 mice): prolonged gestation in vivo

CC(=O)[C@H]1CC[C@H]2[C@@H]3CC=C4C[C@@H](O)CC[C@]4(C)[C@H]3CC[C@]12C [pregnenolone]
gestation after LPS (pregnant CD1 mice): prolonged gestation in vivo

C[C@]12CC[C@H](OS(=O)(=O)O)CC1=CC[C@@H]1[C@@H]2CC[C@]2(C)C(=O)CC[C@@H]12 [DHEA-S, dehydroisoandrosterone sulfate]
pups birthed from treated preterm model females (pregnant C57BL/6 mice [5]; intraperitoneal): Full-term live pups
gestation after LPS (pregnant C57BL/6 mice [5]): prolonged gestation in vivo

Reference: patent US20240358719A1, “Formulations for Prolonging Gestation and for Complications of Menstruation or Gestation” (The Board of Trustees of the Leland Stanford Junior …, priority 2021, published 2024)
